Results from patent US7619005B2, “Methods for treating cognitive impairment in humans with Multiple Sclerosis” (Cognition Pharmaceuticals LLC, priority 2000, dated 2009).

Tests used:
normal subjects [1] = assay: Phase I studies of l-methamphetamine: safety and tolerability
normal subjects [2] = assay: CDR computerized cognitive assessment system, l-methamphetamine
Method: A randomized, double-blind, placebo-controlled, dose escalation study in human subjects, who were not suffering from an impairment in a memory or cognitive process (“normal subjects”), was conducted to assess the safety, tolerability and pharmacokinetics and improvement in cognitive processes, including memory, following the administration of l-methamphetamine (25 mg, 50 mg, 100 mg, 150 mg).
A selection of tasks from the CDR computerized cognitive assessment system was administered and parallel forms of the tests were presented on each testing session. […] All tasks were computer-controlled, the information was presented on high resolution screens, and the responses recorded via a response module containing two buttons, one marked ‘NO’ and the other ‘YES’. The tracking task additionally involved the use of a joystick. The test battery takes about 20-25 minutes to perform. The tests were administered in the following order: • Picture Presentation: A series of 20 pictures was presented on the screen at the rate of 1 every 3 seconds for the subject to remember. No data were recorded from this task. • Simple Reaction Time: The subject was instructed to press the ‘YES’ response button as quickly as possible every time the word ‘YES’ is presented on the screen. […] A series of digits was then presented in the center of the screen at the rate of 150 per minute and the subject was required to press the ‘YES’ button as quickly as possible every time the digit in the series matches the target digit. There were 45 targets in the series. The task lasted for 3 minutes. • Choice Reaction Time: Either the word ‘NO’ or the word ‘YES’ was presented on the screen and the subject was instructed to press the corresponding button as quickly as possible. There were 50 trials for which each stimulus word was chosen randomly with equal probability and there was a varying inter-stimulus interval. • Rapid Visual Information Processing: A series of digits was presented on the screen at the rate of 100 per minute. The subject had to detect targets consisting of consecutive sequences of either three odd digits or three even digits, and to report them by pressing the ‘YES’ button as quickly as possible. There were 32 targets. The task lasted for 4 minutes. • Tracking: The subject used a joystick to track a randomly moving target on the screen for one minute. The distance off-target per second was recorded. • Spatial Working Memory: A picture of a house was presented on the screen with four of its nine windows lit. The subject had to memorize the position of the lit windows. For each of the 36 subsequent presentations of the house, the subject was required to decide whether or not the one window that was lit was also lit in the original presentation. […]

scopolamine treated rats = assay: Passive Avoidance in scopolamine treated rats (memory impairment); assay type: in vivo, rat
Long-Evans rats [3] = assay: Passive Avoidance test, injection immediately after training; settings: i.p. immediately after training; p values=0.007 (C105), 0.0004 (d-amphetamine), 0.03 (SN522)
Long-Evans rats [4] = assay: Tailflick test of analgesia (SN522); assay type: in vivo, rat; settings: 0.25, 0.5, 2.5 and 5.0 mg/kg i.p.; 15, 30, 60 minutes
Method: The tail-flick response was assessed using a radiant heat tail flick monitor (Accuscan Instruments model TFS) equipped with a radiant heat element and two light beam sensors to detect tail movement.
In order to determine whether SN522 has any analgesic properties, rats (n=10 per treatment group) were injected with saline or SN522 (0.25, 0.5, 2.5 and 5.0 mg/kg, i.p.) and tested at four time points: immediately prior to injection, and again 15, 30, and 60 minutes following drug administration for a tail flick response (D'Amour, F. E., et al., J. Pharmacol. Exp. Ther. 72:174-179 (1941)). To test the tail-flick, the animal was placed on top of the Tail-Flick monitor and gently held in place with a cotton towel. The tail of the animal was placed in a shallow groove lying between the two sensors and over the top of the radiant heat wire. The heat element was activated, and the latency for the animal to flick its tail out of the groove and away from the heat source was automatically recorded via activation of the sensors. The intensity of the heat source was adjusted so that the animal flicked its tail within 3-4 seconds. A 10 second cutoff was imposed to avoid tissue damage. The animal was returned to its home cage immediately following testing.

Long-Evans rats [5] = assay: Locomotor activity, activity monitoring chambers; assay type: in vivo, rat
Method: Activity monitoring was conducted in a Plexiglas open-field box measuring 30 by 30 cm. […] The location of the animal within the cage was detected by breaks in the infrared light beams. Light beams status information was collected and rapidly analyzed by a computerized activity monitoring system (VersaMax System, Accuscan Instruments.)
In order to determine whether SN522 had any adverse effects on locomotor or exploratory activity, rats were injected with saline or 0.25, 0.5, 2.5 and 5.0 mg/kg of SN522 and immediately afterwards placed into the activity monitoring chambers for a period of three hours.

normal subjects [6] = assay: Phase I studies of l-methamphetamine: RAVLT word recall
Long-Evans rats [7] = assay: Water Maze acquisition; assay type: in vivo, rat; settings: higher dose (0.5 mg/kg i.p.); p>0.05
Method: Water Maze testing (Morris, R., J. Neurosci Methods 11:47-60 (1984)) was conducted in a galvanized steel pool, painted white, measuring 180 cm in diameter and 60 cm in height. The pool was equipped with a removable circular platform (10 cm in diameter) made of clear Plexiglas. The pool was filled with water (26° C.) to a level of 1 cm above the surface of the platform. Nontoxic white paint was added to the water to obscure the platform's appearance. The pool was divided conceptually into four quadrants and the platform was located in the NW quadrant 30 cm from the pool wall. Extramaze cues were provided by large geometric shapes adhered to curtains that surrounded two sides of the pool, and by shelving units, a sink, and posters on the visible walls.
The training procedure involved placing the rat into the water, with the rat's head facing the wall of the pool, at one of four different starting points. The rat was allowed 60 seconds to locate the hidden platform. […] After 15 seconds spent on the platform at the end of each trial, the rat was removed from the pool and injected with saline or SN522 (0.25 and 0.5 mg/kg, i.p.). The rat was dried, and returned to its home cage. One trail was conducted each day for 10 days. The latency to reach the platform (escape latency) was recorded on each days training trial.

Compound: CN[C@H](C)Cc1ccccc1 [SN522, levo-methamphetamine]
- tolerability (normal subjects [1]; 150 mg dose, a few subjects in the second Phase I trial): not well tolerated
- tolerability (normal subjects [1]; first and second Phase I trials (1-100 mg)): generally well tolerated
- Picture Recognition-Sensitivity Index vs placebo (normal subjects [2]; 25 mg (p=0.0177) and 150 mg (p=0.0254) (FIG. 36)): significant benefits
- Information Processing False Alarms vs placebo (normal subjects [2]; 50 mg (p=0.0002), 100 mg (p=0.0001) and 150 mg (p=0.0001) (FIG. 38)): significant decrements against placebo
- Information Processing Targets Detected vs placebo (normal subjects [2]; 100 mg (p=0.0002) and 150 mg (p=0.0001) (FIG. 37)): significant benefits
- speed of response (Total Speed score) (normal subjects [2]; 25, 50, 100, 150 mg (FIG. 35)): dose-dependent effect on speed of response
- performance vs animals treated with scopolamine and saline (scopolamine treated rats; 0.25, 0.5 and 1.0 mg/kg, p values=0.01, 0.04 and 0.007): performed significantly better than animals treated with scopolamine and saline
- alleviation of scopolamine impairment (step-through latency) (scopolamine treated rats; SN522 i.p. immediately after training, log rank p=0.02 (FIG. 32)): effective at alleviating the impairment in the scopolamine-injected animals
- dose that significantly improved performance on the passive avoidance task (Long-Evans rats [3]): 0.5 mg/kg
- pain sensitivity (tail flick latency) (Long-Evans rats [4]): does not alter pain sensitivity
- activity relative to saline control (Long-Evans rats [5]; 0.5 mg/kg, p=0.028): only modest increases in activity
- motor behavior (FIG. 23 description) (Long-Evans rats [5]; 0.25 and 0.5 mg/kg ip): no or modest changes in motor behavior
- activity relative to saline control (Long-Evans rats [5]; 2.5 and 5.0 mg/kg, p<0.001): small, but significant increases in activity
- activity (FIG. 23 description) (Long-Evans rats [5]; doses ten times over the therapeutic doses (2.5, 5.0 mg/kg ip)): only mild increases in activity
- RAVLT memory scores (normal subjects [6]; first Phase I study (1, 4, 16, 32 mg)): No difference in memory scores
- RAVLT mean values vs placebo (normal subjects [6]; second Phase I study (25, 50, 100 mg) (FIG. 34)): all dose groups have mean values greater than placebo at 30 minutes and 24 hours
- acquisition (escape latency) compared with saline group (Long-Evans rats [7]): did not reveal any statistical differences
